The source of these data is DBAASP.

≈ marks a conversion by molar mass, not a printed value.

The term MIC denotes the lowest concentration found to suppress growth.

Among the test systems are Bacillus cereus; Staphylococcus aureus; Escherichia coli; Salmonella typhimurium; Bacillus subtilis.
Holding throughout (assay): ≥ marks a high value that may be exact or a test limit, other limits are often not marked, values filed in µg/mL are converted to µM
In test [1] the test system is Staphylococcus aureus NCTC 10788.
Test [2] has as its system Escherichia coli ATCC 25726.
For test [3], the system named is Staphylococcus aureus ATCC 25923.
The test system of test [4] is Candida albicans ATCC 90028.
The test system of test [5] is Staphylococcus aureus ATCC 6538.
Test [6] relates to Pseudomonas aeruginosa ATCC 9027.

Turning to `CC(C)C[C@H](NC(=O)[C@@H](N)Cc1ccccc1)C(=O)NCC(=O)N[C@@H](CO)C(=O)N[C@H](C(=O)N[C@@H](Cc1ccccc1)C(=O)N[C@@H](CCCCN)C(=O)N[C@@H](CO)C(=O)N[C@@H](C)C(=O)N[C@@H](CO)C(=O)N[C@@H](CCCCN)C(=O)N[C@H](C(=O)N[C@@H](Cc1ccccc1)C(=O)N1CCC[C@H]1C(=O)N[C@@H](C)C(=O)N[C@H](C(=O)N[C@@H](Cc1ccccc1)C(=O)NCC(=O)N[C@@H](CCCCN)C(=O)N[C@H](C(=O)O)C(C)C)C(C)C)C(C)C)C(C)C` [FLGSVFKSASKVFPAVFGKV], the MIC against Bacillus cereus was at least 121 µM; with Staphylococcus aureus, over 121 µM; against Escherichia coli, over 121 µM.
For `CC(C)C[C@H](NC(=O)[C@H](CC(C)C)NC(=O)CNC(=O)CNC(=O)[C@H](CC(C)C)NC(=O)[C@@H](NC(=O)[C@H](CC(N)=O)NC(=O)[C@H](CO)NC(=O)[C@@H](NC(=O)[C@H](CC(C)C)NC(=O)CNC(=O)[C@H](CC(C)C)NC(=O)[C@@H](NC(=O)[C@@H]1CCCN1C(=O)CNC(=O)[C@H](CC(C)C)NC(=O)[C@@H](N)CC(C)C)C(C)C)C(C)C)C(C)C)C(N)=O` [LLGPVLGLVSNVLGGLL], the MIC in test [1] is at least 157 µM.
Regarding `CC[C@H](C)[C@H](NC(=O)[C@H](CC(C)C)NC(=O)[C@H](CO)NC(=O)[C@@H]1CCCN1C(=O)[C@@H](NC(=O)[C@@H](NC(=O)[C@H](CCCCN)NC(=O)[C@H](CO)NC(=O)[C@H](C)NC(=O)[C@@H](NC(=O)[C@H](CO)NC(=O)CNC(=O)[C@@H](NC(=O)[C@H](C)NC(=O)[C@@H](N)CO)C(C)C)C(C)C)C(C)C)C(C)C)C(=O)N[C@@H](CO)C(=O)N[C@@H](CCCCN)C(=O)N[C@H](C(=O)N[C@H](C(=O)N[C@@H](CCCCN)C(=O)O)[C@@H](C)O)C(C)C` [SAVGSVASKVVPSLISKVTK], the figures for the MIC with Bacillus cereus and in the test with Escherichia coli were at least 131 µM and over 131 µM, respectively.
As for `CC[C@H](C)[C@H](NC(=O)[C@H](CCCCN)NC(=O)CNC(=O)[C@H](C)NC(=O)[C@@H](NC(=O)[C@H](CO)NC(=O)CNC(=O)[C@H](C)NC(=O)[C@H](CCCCN)NC(=O)[C@H](CO)NC(=O)[C@H](C)NC(=O)[C@H](CCSC)NC(=O)CN)C(C)C)C(=O)N[C@@H](C)C(=O)N[C@@H](CCCCN)C(=O)N[C@@H](Cc1ccccc1)C(=O)N[C@@H](C)C(=O)N[C@@H](CC(C)C)C(=O)NCC(=O)N[C@@H](C)C(=O)N[C@@H](CC(C)C)C(N)=O` [GMASKAGSVAGKIAKFALGAL], the MIC in test [2] is at least 80 µM; in [3] it was 80 µM (≈ 156 µg/mL); in [4], at least 160 µM.
`CC(C)C[C@H](NC(=O)[C@H](CC(C)C)NC(=O)[C@H](CCCCN)NC(=O)[C@H](CCCCN)NC(=O)[C@H](C)NC(=O)[C@H](CC(C)C)NC(=O)[C@H](CCCCN)NC(=O)[C@H](C)NC(=O)[C@H](CC(C)C)NC(=O)[C@H](C)NC(=O)[C@H](CCCCN)NC(=O)[C@H](C)NC(=O)[C@@H](N)Cc1ccccc1)C(N)=O` [FAKALAKLAKKLL]: the MIC in test [5] and in test [6] was 3.53 µM (≈ 5 µg/mL) throughout.
For `CC(C)C[C@H](NC(=O)[C@H](CC(C)C)NC(=O)[C@H](CCCCN)NC(=O)[C@H](CCCCN)NC(=O)[C@H](C)NC(=O)[C@H](C)NC(=O)[C@H](CC(C)C)NC(=O)[C@H](CCCCN)NC(=O)[C@H](CC(C)C)NC(=O)[C@H](CC(C)C)NC(=O)[C@H](CCCCN)NC(=O)[C@H](C)NC(=O)[C@@H](N)Cc1ccccc1)C(N)=O` [FAKLLKLAAKKLL], the figures for the minimal inhibitory concentration (MIC) in test [5] and in test [6] were 137 µM (≈ 200 µg/mL) and 3.43 µM (≈ 5 µg/mL), respectively.
With `CC[C@H](C)[C@H](NC(=O)[C@H](CCCN=C(N)N)NC(=O)[C@@H](NC(=O)[C@@H](NC(=O)[C@@H](NC(=O)CN)C(C)C)C(C)C)C(C)C)C(=O)NCC(=O)N[C@@H](CCCN=C(N)N)C(=O)N[C@H](C(=O)N[C@H](C(=O)N[C@H](C(=O)N[C@@H](CCCN=C(N)N)C(=O)NCC(=O)N[C@H](C(=O)N[C@@H](CCCN=C(N)N)C(=O)N[C@@H](CCCN=C(N)N)C(N)=O)C(C)C)C(C)C)C(C)C)C(C)C` [GVVVRIGRVVVRGVRR], the MIC was 8 µM (≈ 14.2 µg/mL) with Staphylococcus aureus, 4 µM (≈ 7.1 µg/mL) with Salmonella typhimurium, 8 µM (≈ 14.2 µg/mL) with Escherichia coli and 8 µM (≈ 14.2 µg/mL) in the test with Bacillus subtilis.
As to `CC(C)C[C@H](NC(=O)[C@@H](N)Cc1ccccc1)C(=O)NCC(=O)N[C@@H](CCCCN)C(=O)N[C@H](C(=O)N[C@H](C(=O)N[C@@H](CCCCN)C(=O)N[C@@H](CCCCN)C(=O)N[C@@H](C)C(=O)N[C@@H](CO)C(=O)N[C@@H](CCCCN)C(=O)N[C@H](C(=O)N[C@@H](Cc1ccccc1)C(=O)N1CCC[C@H]1C(=O)N[C@@H](C)C(=O)N[C@H](C(=O)N[C@@H](Cc1ccccc1)C(=O)NCC(=O)N[C@@H](CCCCN)C(=O)N[C@H](C(=O)O)C(C)C)C(C)C)C(C)C)C(C)C)C(C)C` [FLGKVVKKASKVFPAVFGKV], the values for the MIC with Bacillus cereus, in the test with Staphylococcus aureus and against Escherichia coli were at least 59.5 µM, over 59.5 µM and 59.5 µM (≈ 128 µg/mL), respectively.
As for `CC(C)C[C@H](NC(=O)[C@H](CCCCN)NC(=O)[C@H](Cc1ccccc1)NC(=O)[C@@H](NC(=O)[C@@H](NC(=O)CNC(=O)[C@H](CC(C)C)NC(=O)[C@@H](N)Cc1ccccc1)C(C)C)C(C)C)C(=O)N[C@@H](C)C(=O)N[C@@H](CO)C(=O)N[C@@H](CCCCN)C(=O)N[C@H](C(=O)N[C@@H](Cc1ccccc1)C(=O)N1CCC[C@H]1C(=O)N[C@@H](C)C(=O)N[C@H](C(=O)N[C@@H](Cc1ccccc1)C(=O)N[C@@H](CCCCN)C(=O)N[C@@H](CCCCN)C(=O)N[C@H](C(=O)O)C(C)C)C(C)C)C(C)C` [FLGVVFKLASKVFPAVFKKV], the figures for the minimum inhibitory concentration (MIC) against Bacillus cereus, in the test with Staphylococcus aureus and in the test with Escherichia coli were 7.19 µM (≈ 16 µg/mL), 1.8 µM (≈ 4 µg/mL) and 28.8 µM (≈ 64 µg/mL), respectively.
`CC[C@H](C)[C@H](NC(=O)[C@@H](NC(=O)[C@H](CO)NC(=O)[C@H](CCCCN)NC(=O)[C@H](C)NC(=O)[C@@H](NC(=O)[C@H](CCCCN)NC(=O)[C@@H](NC(=O)[C@@H](N)CO)C(C)C)C(C)C)C(C)C)C(=O)N1CCC[C@H]1C(=O)N[C@@H](CO)C(=O)N[C@@H](C)C(=O)N[C@H](C(=O)N[C@@H](Cc1ccccc1)C(=O)N[C@@H](C)C(=O)NCC(=O)NCC(=O)N[C@@H](CCCCN)C(=O)N[C@H](C(=O)N[C@@H](Cc1ccccc1)C(=O)O)C(C)C)C(C)C` [SVKVAKSVIPSAVFAGGKVF]: the MIC is at least 129 µM against Bacillus cereus and over 129 µM with Escherichia coli.
For `CC[C@H](C)[C@H](NC(=O)[C@H](CCCCN)NC(=O)[C@@H](NC(=O)[C@@H](NC(=O)[C@@H](NC(=O)[C@H](CCC(N)=O)NC(=O)[C@H](C)NC(=O)CNC(=O)[C@H](CO)NC(=O)[C@H](CCCCN)NC(=O)[C@H](CCC(N)=O)NC(=O)[C@H](C)NC(=O)[C@H](CCCCN)NC(=O)[C@H](CCCCN)NC(=O)[C@H](C)N)[C@@H](C)O)[C@@H](C)CC)C(C)C)C(=O)N[C@@H](Cc1ccccc1)C(=O)N[C@@H](C)C(=O)N[C@@H](CCCCN)C(=O)NCC(=O)N[C@@H](CCSC)C(=O)O` [AKKAQKSGAQTIVKIFAKGM] the same measures were at least 122 µM and over 122 µM.
